Like-named read-outs stand apart in the source and are kept apart here.
Experiments:
BTK = target: T1, BTK (Mus musculus, UniProt P35991); assay: BTK target occupancy in mouse splenocytes after a single oral dose; format: in vivo; details: single oral 25 mg/kg, 3 hours
T1 construct: from tissue; host or cells: mouse spleen (splenocytes), animals dosed in vivo; A19 used DBA/1 mice with collagen-induced arthritis

B cell receptor (BCR) [1] = assay: Ex vivo anti-IgM induced CD86 and CD69 expression on splenocyte B cells after oral dosing of mice; format: in vivo, mouse; details: single oral 25 mg/kg; for inhibition at 25 mg/kg: Mus musculus, B-cell, 3-24 hours, read-out: CD69 % inhibition over the entire time course; for inhibition of ex vivo anti-IgM induced responses in B cells: 3 hours post-dose
Description: (§1) B cell stimulation through the B cell receptor (BCR) with antibodies (e.g., anti-IgM) results in the activation of BTK and subsequent cellular changes, including the upregulation of various cell surface receptors. Measuring the inhibition of BCR induced protein phosphorylation downstream of Btk, and the inhibition of surface receptor upregulation provides a way to assess the Btk inhibitor activity. In the first study, the BTK target occupancy in splenocytes was measured over time, providing evidence for BTK resynthesis in the tissue compartment of interest.
(§2) Mice were sacrificed at 3, 6, 12, 18, and 24 hours after treatment with the BTK inhibitors (FIG. 27A, FIG. 27B, and FIG. 27C). Spleens were harvested and splenocyte preparations were made for flow cytometry analysis of B cell functions. Fresh or cryopreserved splenocytes were cultured with a-IgM to stimulate BCR, and the up-regulation of CD69, an early functional marker of B cell activation, was analyzed by flow cytometry.

S6 phosphorylation = assay: Basal and anti-IgM induced S6 phosphorylation in splenocytes after oral dosing of mice; format: in vivo, mouse; details: single oral 25 mg/kg; rank order Formula (II)>ibrutinib>Formula (XVII)
Description: as §1, §2
A downstream marker of BTK activity, S6 phosphorylation, was also monitored in this study. […] In a second study, the effects of another inhibitor of BTK that covalently inactivates the kinase, Formula (XXI), were compared with Formula (II) to evaluate the return of BCR function and B cell activation, as illustrated in FIG. 29A and FIG. 29B.

B cell receptor (BCR) [2] = assay: Ex vivo anti-IgM induced CD86 and CD69 expression on splenocyte B cells after oral dosing of mice; format: in vivo; details: Mus musculus, single oral 25 mg/kg, 3-24 hours, read-out: CD86 % inhibition over the entire time course
psoriasis = details: tyrosine kinase inhibitors used for malignancies; cited from earlier work
[3] = system: BCR signaling through BTK; assay: Anti-IgM induced CD86 and CD69 on splenocyte B cells of CIA mice; format: in vivo, mouse; details: splenocytes 3 hr after last dosing on day 14
Description: (§3) FIG. 45 illustrates changes in a functional measure of BCR signalling through the CD86 marker. Mouse splenocytes were isolated from spleens from mice that were part of the mouse CIA study semi-therapeutic protocol, 3 hr after the last dosing on day 14 of the treatment and cryopreserved. After thawing, inhibition of anti-IgM-induced PD markers CD86 and CD69 on mouse splenocyte B cells were measured. Error bars represent the standard deviation for the 3 sets of splenocytes analyzed.
as §3, with “FIG. 46” for “FIG. 45”, “the CD69” for “the CD86”
Inhibition of the BCR signaling through BTK was evaluated by ex vivo stimulation of splenocytes using IgM and evaluation of CD86 and CD69 as functional responses of BCR stimulation.

[4] = system: established type II collagen-induced arthritis (CIA) in DBA/1 mice; assay: 14-day mouse established type II collagen-induced arthritis (CIA), PO QD (Example 10); format: in vivo; details: for AUC (All Paws) - Corrected for Initial Score / Change in Body Weight (g) / Histopathology Summed Score Knees / Histopathology Summed Score Paws / Histopathology Summed Score Six-Joints / Paw Score AUC (All Paws): mean(SE); for disease-induced body weight loss (percent change from baseline) vs vehicle controls / arthritis scores measured daily vs vehicle controls: p<0.05 on the days printed; for arthritis scores measured daily vs vehicle controls: all paws
Description: Prior to dosing, the candidate anti-inflammatory agents were reconstituted either by vortexing or stirring. The candidate anti-inflammatory agents were administered to the DBA/1 mice daily (QD) by the oral (PO) route.
Immunization with heterologous type II collagen (CII) induces arthritis in mice of the DBA/1 strain, which is genetically susceptible to this disease. To develop an experimental model of autoimmunity more adequate for the study of human rheumatoid arthritis (RA), male DBA/1 mice were injected intradermally (ID) with bovine type II collagen to induce arthritis as reported by Trentham et al (Trentham D E, Townes A S, Kang A H Autoimmunity to type II collagen: an experimental model of arthritis. J. Exper. Med. 1977, 146:857-868) and Bendele A (Bendele A, Animal models of rheumatoid arthritis. J. Musculoskelet. Neuronal Interact. 2001, 1(4):377-85). Male DBA/1 mice (n=114) that were 6-7 weeks old and weighed approximately 18-27 grams (mean 22 g) at enrollment (arthritis day 1) were obtained from Taconic Farms, Inc. The male DBA/1 mice were at least 6 weeks old at time of first immunization and were housed 3-5/cage in shoe-box polycarbonate cages with wire tops, wood chip bedding, and suspended food and water bottles. These animals were identified by a distinct number of ink marks at the base of the tail delineating animal number. After enrollment, all cages were labeled with protocol number, group number, and animal numbers.
The male DBA/1 (n=10/group for arthritis) were anaesthetized with Isoflurane, shaved at the base of the tail, and injected intradermally with 150 μL of Freund's Complete Adjuvant (Difco, Detroit, Mich.) containing bovine type II collagen (BBP, batch #7) (1 mg/ml) at the base of the tail on day 0 and again on day 21. […] Randomization was done after swelling was obviously established in at least one paw (score of 1) and attempts were made to ensure approximately equal mean scores of 0.5-1 across groups at the time of enrollment. […] The male DBA/1 mice were terminated on arthritis day 14 (3 hours post-dose).
Efficacy evaluation of the administered anti-inflammatory agents was based on animal body weights, clinical arthritis scores, arthritis scores expressed as area under the curve (AUC), and histopathology on fore paws, hind paws, and knees. Histopathology results were expressed as 4 paws, knees only, or 6 joints (knees included). Day 13 was used as the endpoint for analysis of body weight change since the male DBA/1 mice were fasted overnight prior to necropsy on day 14.

T1 sequence (P35991 whole entry): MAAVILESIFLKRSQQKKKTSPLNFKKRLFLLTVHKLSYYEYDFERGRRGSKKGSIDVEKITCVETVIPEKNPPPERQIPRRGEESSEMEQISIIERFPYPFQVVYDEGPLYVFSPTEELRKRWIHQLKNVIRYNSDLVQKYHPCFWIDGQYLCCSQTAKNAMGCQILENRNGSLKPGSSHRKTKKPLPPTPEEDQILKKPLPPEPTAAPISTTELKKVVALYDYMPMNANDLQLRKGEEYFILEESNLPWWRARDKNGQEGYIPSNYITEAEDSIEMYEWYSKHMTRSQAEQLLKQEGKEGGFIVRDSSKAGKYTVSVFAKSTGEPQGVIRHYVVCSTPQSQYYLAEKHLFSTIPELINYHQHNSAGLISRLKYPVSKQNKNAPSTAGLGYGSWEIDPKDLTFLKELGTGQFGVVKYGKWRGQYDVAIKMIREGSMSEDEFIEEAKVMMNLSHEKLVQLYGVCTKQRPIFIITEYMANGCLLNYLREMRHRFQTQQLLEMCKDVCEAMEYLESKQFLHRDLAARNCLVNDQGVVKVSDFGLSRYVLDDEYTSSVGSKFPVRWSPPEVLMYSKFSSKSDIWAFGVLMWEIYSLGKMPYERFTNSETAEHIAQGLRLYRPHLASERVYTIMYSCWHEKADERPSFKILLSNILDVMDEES

Question: Which “BTK target occupancy in splenocytes” value (BTK) does the source give for `C=CC(=O)Nc1cccc(Nc2nc(Nc3ccc(OCCOC)cc3)ncc2F)c1` [Formula (XVII), N-(3-((5-fluoro-2-((4-(2-methoxyethoxy)phenyl)amino)pyrimidin-4-yl)amino)phenyl)acrylamide] here?
Answer: incomplete BTK target occupancy

Question: And the inhibition at 25 mg/kg (B cell receptor (BCR) [1])?
Answer: 44.8%

Question: What about the “inhibition of ex vivo anti-IgM induced responses in B cells” value (B cell receptor (BCR) [1]) of the same compound?
Answer: incomplete inhibition

Question: And the “basal state and anti-IgM induced S6 phosphorylation” value (S6 phosphorylation)?
Answer: inhibited both basal state and anti-IgM induced S6 phosphorylation

Question: And the inhibition at 25 mg/kg (B cell receptor (BCR) [2])?
Answer: 28.1%

Question: Which “effect on psoriasis / skin in patients” value (psoriasis) does the source give for `Cc1ccc(C(=O)Nc2ccc(CN3CCN(C)CC3)c(C(F)(F)F)c2)cc1C#Cc1cnc2cccnn12` [Ponatinib] here?
Answer: induces an almost psoriasis-like disease

Question: Which “effect on psoriasis / skin in patients” value (psoriasis) does the source give for `Cc1nc(Nc2ncc(C(=O)Nc3c(C)cccc3Cl)s2)cc(N2CCN(CCO)CC2)n1` [dasatinib] here?
Answer: has not been reported to improve psoriasis

Question: Which results are given for `C=CC(=O)N1CCC[C@@H](n2nc(-c3ccc(Oc4ccccc4)cc3)c3c(N)ncnc32)C1` [ibrutinib, (R)-1-(3-(4-amino-3-(4-phenoxyphenyl)-1H-pyrazolo[3,4-d]pyrimidin-1-yl)piperidin-1-yl)prop-2-en-1-one]?
Answer: BCR-mediated signaling (anti-IgM induced CD86 and CD69) [3]: dose-responsive decreases in BCR-mediated signaling; AUC (All Paws) - Corrected for Initial Score ([4]; 1 mg/kg PO QD): 20.81(4.47); Change in Body Weight (g) ([4]; 1 mg/kg PO QD): −1.28(0.69) g; Histopathology Summed Score Knees ([4]; 1 mg/kg PO QD): ‡10.15(1.16); Histopathology Summed Score Paws ([4]; 1 mg/kg PO QD): 10.30(1.84); Histopathology Summed Score Six-Joints ([4]; 1 mg/kg PO QD): 10.25(1.36); Paw Score AUC (All Paws) ([4]; 1 mg/kg PO QD): 28.29(5.18); disease-induced body weight loss (percent change from baseline) vs vehicle controls ([4]; 1 mg/kg PO QD): significantly inhibited toward normal; daily arthritis scores vs vehicle controls ([4]; 1 mg/kg PO QD, prophylactic paws): significantly reduced toward normal; six-joint histopathology, reduction of summed scores vs vehicle controls ([4]; 5 mg/kg PO QD): 79%; total body weight loss from enrollment to study termination ([4]; 5 mg/kg PO QD): significantly inhibited; arthritis scores measured daily vs vehicle controls ([4]; 5 mg/kg PO QD): significantly reduced toward normal; AUC (All Paws) - Corrected for Initial Score ([4]; 5 mg/kg PO QD): *3.68(2.18); Change in Body Weight (g) ([4]; 5 mg/kg PO QD): *0.45(0.65) g; Histopathology Summed Score Paws ([4]; 5 mg/kg PO QD): *3.63(1.07); Histopathology Summed Score Six-Joints ([4]; 5 mg/kg PO QD): *3.11(0.95); disease-induced body weight loss (percent change from baseline) vs vehicle controls ([4]; 5 mg/kg PO QD): significantly inhibited toward normal; daily arthritis scores vs vehicle controls ([4]; 5 mg/kg PO QD, prophylactic paws): significantly reduced toward normal; six-joint histopathology, reduction of summed scores vs vehicle controls ([4]; 25 mg/kg PO QD): 94%; total body weight loss from enrollment to study termination ([4]; 25 mg/kg PO QD): significantly inhibited; arthritis scores measured daily vs vehicle controls ([4]; 25 mg/kg PO QD): significantly reduced toward normal; AUC (All Paws) - Corrected for Initial Score ([4]; 25 mg/kg PO QD): *−4.09(1.58); Change in Body Weight (g) ([4]; 25 mg/kg PO QD): *0.83(0.62) g; Histopathology Summed Score Knees ([4]; 25 mg/kg PO QD): *0.65(0.29); Histopathology Summed Score Paws ([4]; 25 mg/kg PO QD): *0.91(0.48); Histopathology Summed Score Six-Joints ([4]; 25 mg/kg PO QD): *0.83(0.30); Paw Score AUC (All Paws) ([4]; 25 mg/kg PO QD): *3.06(1.08); disease-induced body weight loss (percent change from baseline) vs vehicle controls ([4]; 25 mg/kg PO QD): significantly inhibited toward normal; daily arthritis scores vs vehicle controls ([4]; 25 mg/kg PO QD, prophylactic paws): significantly reduced toward normal; daily arthritis scores vs vehicle controls ([4]; 25 mg/kg PO QD, therapeutic paws): significantly reduced toward normal; spleen weights compared to vehicle controls ([4]; all dose groups PO QD): not significantly affected; inhibition at 25 mg/kg (B cell receptor (BCR) [1]): 83.4%; inhibition of ex vivo anti-IgM induced responses in B cells (B cell receptor (BCR) [1]): near complete inhibition; inhibition of CD86 and CD69 expression (B cell receptor (BCR) [1]; persisting for 24 hours): partial inhibition; basal state and anti-IgM induced S6 phosphorylation (S6 phosphorylation): inhibited both basal state and anti-IgM induced S6 phosphorylation; inhibition at 25 mg/kg (B cell receptor (BCR) [2]): 62.9%

Question: With `Cc1ccc(NC(=O)c2ccc(CN3CCN(C)CC3)cc2)cc1Nc1nccc(-c2cccnc2)n1` [imatinib] as the compound, how does the “effect on psoriasis / skin in patients” value (psoriasis) read?
Answer: may cause worsening of psoriasis

Reference: patent US20170143712A1, “Methods of Treating Cancers, Immune and Autoimmune Diseases, and Inflammatory Diseases Based on BTK Occupancy and BTK Resynthesis Rate” (Acerta Pharma B.V., priority 2014, published 2017)
